According to ChEMBL document CHEMBL5244230, “Artemisinin-derived hybrids and their anticancer activity” (Eur J Med Chem, 2020):
≈ marks a conversion by molar mass, not a printed value. Where “and” joins values, the source holds several entries; their conditions need not be identical. Equal values may be shown once.

Tests used:
HeLa [1] = test: Cytotoxicity against human HeLa cells assessed as cell viability incubated for 48 hrs by MTT assay; type: functional, cell-based
HeLa [2] = test: Antiproliferative activity against human HeLa cells; type: functional, cell-based
HCT-116 = test: Antiproliferative activity against human HCT-116 cells; type: functional, cell-based
[3] = Antiproliferative activity against human 1205Lu cells; type: functional, cell-based
SGC-7901 = test: Antiproliferative activity against human SGC-7901 cells assessed as reduction in cell viability measured for 24 hrs; type: functional, cell-based; settings: SGC-7901, 24 h
PC-3 [4] = test: Antiproliferative activity against human PC-3 cells assessed as reduction in cell viability measured for 24 hrs; type: functional, cell-based; settings: PC-3, 24 h
A549 [5] = test: Antiproliferative activity against human A549 cells assessed as reduction in cell viability measured for 24 hrs; type: functional, cell-based; settings: A549, 24 h
HT-29 [6] = test: Antiproliferative activity against human HT-29 cells; type: functional, cell-based
MCF7 [7] = test: Anticancer activity against human MCF7 cells; type: functional, cell-based
EL4 = test: Antiproliferative activity against mouse EL4 cells; type: functional, cell-based
[8] = Cytotoxicity against CHO cells; type: toxicity, cell-based, Cricetulus griseus; settings: Chinese hamster
TK-10 [9] = test: Anticancer activity against human TK-10 cells; type: functional, cell-based
UACC-62 [10] = test: Anticancer activity against human UACC-62 cells assessed as total growth inhibition; type: functional
[11] = Blood clearance in rat at 100 mg/kg, po; type: ADME, organism-based
TK-10 [12] = test: Anticancer activity against human TK-10 cells assessed as total growth inhibition; type: functional
UACC-62 [13] = test: Anticancer activity against human UACC-62 cells; type: functional, cell-based
MCF7 [14] = test: Anticancer activity against human MCF7 cells assessed as total growth inhibition; type: functional
SMMC-7721 = test: Antiproliferative activity against human SMMC-7721 cells; type: functional, cell-based
HepG2 [15] = test: Antiproliferative activity against human HepG2 cells; type: functional, cell-based
HL-60 [16] = test: Antiproliferative activity against human HL-60 cells; type: functional, cell-based
PC-3 [17] = test: Antiproliferative activity against human PC-3 cells; type: functional, cell-based
A-431 = test: Antiproliferative activity against human A-431 cells; type: functional, cell-based
HL-60 [18] = test: Antiproliferative activity against human HL-60 cells assessed as reduction in cell viability measured after 72 hrs; type: functional, cell-based; settings: HL-60, 72 h
HT-29 [19] = test: Antiproliferative activity against human HT-29 cells assessed as reduction in cell viability; type: functional, cell-based
MCF7 [20] = test: Anticancer activity against human MCF7 cells assessed as inhibition of cell growth; type: functional, cell-based
P388 = test: Anticancer activity against mouse P388 cells; type: functional, cell-based
A549 [21] = test: Antiproliferative activity against human A549 cells; type: functional, cell-based
[22] = Antiproliferative activity against mouse P388 cells assessed as reduction in cell viability measured after 72 hrs; type: functional, cell-based; settings: 72 h
COLO 205 = test: Antiproliferative activity against human COLO 205 cells; type: functional, cell-based
HL-60 [23] = test: Anticancer activity against human HL-60 cells; type: functional, cell-based
NCI-H460 = test: Antiproliferative activity against human NCI-H460 cells; type: functional, cell-based
HEK293 = test: Antiproliferative activity against human HEK293 cells; type: functional, cell-based
P388/ADR = test: Antiproliferative activity against mouse P388/ADR cells assessed as reduction in cell viability measured after 72 hrs; type: functional, cell-based; settings: 72 h
[24] = Anticancer activity against human Lu1 cells; type: functional, cell-based
K562 = test: Antiproliferative activity against human K562 cells; type: functional, cell-based
[25] = Antiproliferative activity against human U-87 MG cells; type: functional, cell-based, U-87MG ATCC
MDA-MB-231 = test: Antiproliferative activity against human MDA-MB-231 cells; type: functional, cell-based; settings: mda-mb-231
Leukemia cell = test: Antiproliferative activity against human Leukemia cell assessed as reduction in cell viability; type: functional, cell-based
HeLa [26] = test: Antiproliferative activity against human HeLa cells assessed as reduction in cell viability; type: functional, cell-based
HepG2 [27] = test: Antiproliferative activity against human HepG2 cells assessed as cell growth inhibition by MTT assay; type: functional, cell-based
A549 [28] = test: Antiproliferative activity against human A549 cells assessed as cell growth inhibition by MTT assay; type: functional, cell-based
HCT-15 = test: Antiproliferative activity against human HCT-15 cells assessed as cell growth inhibition by MTT assay; type: functional, cell-based
[29] = Cytotoxicity against human HCEC cells; type: toxicity, cell-based
DLD-1 = test: Cytotoxicity against human DLD-1 cells assessed as cell growth inhibition measured after 48 hrs by MTT assay; type: functional
SiHa = test: Cytotoxicity against human SiHa cells assessed as cell growth inhibition measured after 48 hrs by MTT assay; type: functional
HSC-2 = test: Cytotoxicity against human HSC-2 cells; type: functional, cell-based
B16 = test: Cytotoxicity against mouse B16 cells assessed as cell growth inhibition measured after 48 hrs by MTT assay; type: functional
Ca9-22 = test: Cytotoxicity against human Ca9-22 cells; type: functional, cell-based
[30] = Cytotoxicity against human U87 cells assessed as cell growth inhibition measured after 48 hrs by MTT assay; type: functional, U-87MG ATCC; settings: U-87 MG
HeLa [31] = test: Cytotoxicity against human HeLa cells assessed as cell growth inhibition measured after 48 hrs by MTT assay; type: functional
A 172 = test: Cytotoxicity against human A-172 cells assessed as cell growth inhibition measured after 48 hrs by MTT assay; type: functional

For `COc1ccc2c(N3CCN(CCCNCCO[C@H]4O[C@@H]5O[C@@]6(C)CC[C@H]7[C@H](C)CC[C@@H]([C@H]4C)[C@@]57OO6)CC3)c3ccc(Cl)cc3nc2c1`, which IC50 (HeLa [1]) is on record?
Its IC50 is 0.8 µM.

Which IC50 (HeLa [2]) does the source give for `C[C@H]1[C@@H](CCC(=O)Nc2ccc(F)cc2)O[C@@H]2O[C@]3(C)CC[C@H]4[C@H](C)CC[C@@H]1[C@@]24OO3` here?
The IC50 was 40 µM.

And the IC50 (HCT-116)?
Its IC50 is 40 µM.

And the IC50 [3]?
Its IC50 is 40 µM.

Which IC50 (SGC-7901) does the source give for `COc1ccc(Sc2cccc(C(=O)O[C@@H]3O[C@@H]4O[C@@]5(C)CC[C@H]6[C@H](C)[C@H](O)C[C@@H]([C@H]3C)[C@@]46OO5)c2)cc1` here?
Its IC50 is 4.3 µM.

And the IC50 (PC-3 [4])?
The IC50 was 4.3 µM.

And the IC50 (A549 [5])?
Its IC50 is 4.3 µM.

What does the source list for `C[C@H]1[C@H](CCS(=O)(=O)CC[C@H]2O[C@@H]3O[C@@]4(C)CC[C@H]5[C@H](C)CC[C@@H]([C@H]2C)[C@@]35OO4)O[C@@H]2O[C@@]3(C)CC[C@H]4[C@H](C)CC[C@@H]1[C@@]24OO3`?
IC50 (HT-29 [6]): 0.025 µM; IC50 (MCF7 [7]): 0.025 µM; IC50 (EL4): 0.025 µM

What does the source list for `C[C@H]1[C@H](CCS(=O)(=O)CCCS(=O)(=O)CC[C@H]2O[C@@H]3O[C@@]4(C)CC[C@H]5[C@H](C)CC[C@@H]([C@H]2C)[C@@]35OO4)O[C@@H]2O[C@@]3(C)CC[C@H]4[C@H](C)CC[C@@H]1[C@@]24OO3`?
IC50 (HT-29 [6]): 0.38 µM; IC50 (MCF7 [7]): 0.38 µM; IC50 (EL4): 0.38 µM

Which results are given for `C[C@H]1[C@@H](OCC[N+]2(CCO[C@H]3O[C@@H]4O[C@@]5(C)CC[C@H]6[C@H](C)CC[C@@H]([C@H]3C)[C@@]46OO5)CCN(CCNc3ccnc4cc(Cl)ccc34)CC2)O[C@@H]2O[C@@]3(C)CC[C@H]4[C@H](C)CC[C@@H]1[C@@]24OO3.[Br-]`?
IC50 [8]: 74.8 µM; GI50 (TK-10 [9]): 0.03 µM; GI50 (MCF7 [7]): 0.03 µM; TGI (UACC-62 [10]): 2.21 µM; CL/F [11]: 287 L/h/kg; TGI (TK-10 [12]): 2.21 µM; GI50 (UACC-62 [13]): 0.03 µM; TGI (MCF7 [14]): 2.21 µM

With `C[C@H]1[C@H](N2CCS(=O)(=O)[C@H](CCCCCCOC(=O)c3ccc([N+](=O)[O-])cc3C(=O)O)C2)O[C@@H]2O[C@@]3(C)CC[C@H]4[C@H](C)CC[C@@H]1[C@@]24OO3` as the compound, how does the IC50 (SMMC-7721) read?
The IC50 was 0.06 µM.

What does the source list for `C[C@H]1[C@@H](NC(=O)CCCCCCC(=O)NO)O[C@@H]2O[C@@]3(C)CC[C@H]4[C@H](C)CC[C@@H]1[C@@]24OO3` (racemic)?
IC50 (MCF7 [7]): 1.28 µg/mL; IC50 (HepG2 [15]): 1.28 µg/mL (≈ 2.82 µM); IC50 (HL-60 [16]): 1.28 µg/mL (≈ 2.82 µM)

With `C[C@H]1[C@@H](O)O[C@@H]2O[C@@]3(C)CC[C@H]4[C@H](C)CC[C@@H]1[C@@]24OO3` [ARTENIMOL] as the compound, how does the IC50 (PC-3 [17]) read?
The IC50 was 15.7 µM.

And the IC50 (A-431)?
Its IC50 is 15.7 µM.

What about the IC50 (HL-60 [18]) of the same compound?
Its IC50 is 0.299 µM.

And the IC50 (MCF7 [7])?
The IC50 was 39.9 µM.

And the IC50 (HT-29 [19])?
Its IC50 is 5.29 µM.

And the IC50 (MCF7 [20])?
The IC50 was 39.9 µM.

And the IC50 (P388)?
The IC50 was 39.9 µM.

And the IC50 (A549 [21])?
The IC50 was 5.29 µM.

And the IC50 [22]?
Its IC50 is 1.5 µM.

And the IC50 (COLO 205)?
The IC50 was 15.7 µM.

And the IC50 (HL-60 [23])?
Its IC50 is 39.9 µM.

What about the IC50 (NCI-H460) of the same compound?
Its IC50 is 5.29 µM.

And the IC50 (HEK293)?
Its IC50 is 15.7 µM.

What about the IC50 (P388/ADR) of the same compound?
The IC50 was 20.7 µM.

And the IC50 [24]?
Its IC50 is 39.9 µM.

What about the IC50 (K562) of the same compound?
Its IC50 is 15.7 µM.

And the IC50 (SMMC-7721)?
Its IC50 is 0.4 µM.

What about the IC50 [25] of the same compound?
Its IC50 is 5.29 µM.

What about the IC50 (MDA-MB-231) of the same compound?
The IC50 was 15.7 µM and 5.29 µM.

Which results are given for `C[C@H]1[C@H](OC(=O)CCC(=O)O)O[C@@H]2O[C@@]3(C)CC[C@H]4[C@H](C)CC[C@@H]1[C@@]24OO3` [ARTESUNATE]?
IC50 (HeLa [1]): 0.5 µM; IC50 (Leukemia cell): 6.89 µM; IC50 (HeLa [26]): 11.3 µM; IC50 [3]: 7.1 µM

Which results are given for `O=c1[nH]cc(F)c(=O)[nH]1` [FLUOROURACIL]?
IC50 (HepG2 [27]): 33.7 µM; IC50 (SGC-7901): 6.8 µM; IC50 (MCF7 [7]): > 40 µM; IC50 (PC-3 [4]): 6.8 µM; IC50 (A549 [28]): 33.7 µM; IC50 (A549 [5]): 6.8 µM; IC50 (HCT-15): 33.7 µM; IC50 [29]: > 100 µM

For `CC(=O)O[C@H]1C(=O)[C@@]2(C)[C@H]([C@H](OC(=O)c3ccccc3)[C@]3(O)C[C@H](OC(=O)[C@H](O)[C@@H](NC(=O)c4ccccc4)c4ccccc4)C(C)=C1C3(C)C)[C@]1(OC(C)=O)CO[C@@H]1C[C@@H]2O` [PACLITAXEL], which GI50 (DLD-1) is on record?
Its GI50 is 0.01 µM.

What about the GI50 (SiHa) of the same compound?
The GI50 was 0.01 µM.

What about the IC50 (HSC-2) of the same compound?
Its IC50 is over 100 µM.

What about the IC50 (MCF7 [7]) of the same compound?
The IC50 was over 40 µM.

What about the GI50 (B16) of the same compound?
The GI50 was 0.01 µM.

What about the IC50 (Ca9-22) of the same compound?
Its IC50 is over 100 µM.

And the GI50 [30]?
Its GI50 is 0.01 µM.

And the GI50 (HeLa [31])?
Its GI50 is 0.01 µM.

What about the GI50 (A 172) of the same compound?
Its GI50 is 0.01 µM.
